Reference: article PMC9499463, “Potent Chlorambucil-Platinum(IV) Prodrugs” (International Journal of Molecular Sciences, 2022)
Several values for one entry are separate records, joined by “and”; a condition that tells them apart may be missing. Equal values may be shown once.

Experiments:
BE2-C neuroblastoma = experiment: MTT growth inhibition assay, 72 h; format: cell-based, human
SJ-G2 glioblastoma = experiment: MTT growth inhibition assay, 72 h; format: cell-based, human
panel of cell lines = experiment: MTT growth inhibition assay, 72 h, over the cell line panel; format: cell-based, human; settings: average over all cell lines tested; read-out: Average GI50 Values
HT29 colon = experiment: MTT growth inhibition assay, 72 h; format: cell-based, human; settings: MTT, 72 h
[1] = Lipophilicity by HPLC (log kw); format: physicochemical; settings: chromatographic lipophilicity index, extrapolated to 100% d.i.H2O
Excerpt: For lipophilicity measurements, HPLC was utilized instead of the traditional shake-flask method, as described. A few studies have also reported the important and effective use of HPLC to measure the lipophilicity of compounds [66, 67]. Each complex was eluted under several isocratic ratios. A standard curve was then generated to calculate the log value of the capacity factor (log k) according to eqn (1). Following eqn (2), the percentage of organic solvent (CH3CN) in the mobile phase from each isocratic run was plotted against […] (Figure S34). Since log kw is the chromatographic lipophilicity index or measure of lipophilicity of the complex, a higher value corresponds to greater lipophilicity. Since PCLB, 5CLB, and 56CLB are structurally related, there were no significant variations in lipophilicity noted based on the calculated log kw values (Table 4). It is evident that PCLB is the least lipophilic of the group, with a calculated log kw value of 1.80, which is likely due to the absence of methyl groups in its phenanthroline system. 5CLB and 56CLB were the most lipophilic of the group with calculated log kw values of 1.90 and 1.87, respectively, and this is due to the presence of methyl substituents in their phenanthroline systems. […] Additionally, the chromatographic lipophilicity index of CLB was also measured using the abovementioned method, with a calculated log kw of 1.88, which is within the range observed for PCLB, 5CLB, and 56CLB. However, CLB was approximately 1-fold more lipophilic than PCLB. […] The order of increasing lipophilicity is […].
For lipophilicity measurements, analytical HPLC was utilized. Elution profiles were acquired on an Agilent Technologies 1260 Infinity instrument equipped with a Phenomenex Onyx^TM Monolithic C18-reverse phase column (100 × 4.6 mm, 5 µm pore size). The mobile phase consisted of solvents, A (0.06% TFA in d.i.H2O) and B (0.06% TFA in CH3CN/d.i.H2O (90:10)). Potassium iodide was used as an external dead volume marker to determine the dead time of the column. Retention times (TR) were measured at varying isocratic ratios ranging from 42% to 48% of solvent B at 1 mL/min. An injection volume of 10 µL was utilized. Capacity factors were determined according to Equation (1):(1) k=(TR−T0)/T0, where k is the capacity factor, TR is the retention time of the analyte, and T0 represents the dead time. A minimum of four different mobile compositions were used for each complex to calculate k. A linear plot was generated of log k against the concentration of CH3CN in the mobile phase to determine the value of log kw expressed by Equation (2):(2) logk=Sφ+logkw, where S is the slope, φ is the concentration of the CH3CN in the mobile phase and log kw represents the capacity factor of the complex in 100% d.i.H2O. […]

H460 lung = experiment: MTT growth inhibition assay, 72 h; format: cell-based, human
U87 glioblastoma = experiment: MTT growth inhibition assay, 72 h; format: cell-based, human
[2] = tested on: non-tumor-derived MCF10A breast line; experiment: MTT growth inhibition assay, 72 h; format: cell-based, human
A431 skin = experiment: MTT growth inhibition assay, 72 h; format: cell-based, human
[3] = Reduction experiments with ascorbic acid by 1H-NMR and 1D-195Pt-NMR; format: physicochemical; settings: 10 mM AsA, 10 mM PBS (~7.4 pH), D2O, 37 °C, 1H-NMR
Experimental: Intracellularly, a platinum(IV) complex is reduced into its platinum(II) congener and axial ligands in the presence of biological reducing agents such as AsA or glutathione. This report followed the reduction in PCLB, 5CLB, and 56CLB using ^1H-NMR and 1D-^195Pt-NMR spectroscopy. The method used for the reduction experiments was adapted from the literature with minor modifications. A total of 10 mM PBS (~7.4 pH) was selected as media to mimic physiological conditions, while 10 mM AsA was used as the biological reducing agent. Prior to the reduction experiments, a control was considered where each metal complex was dissolved with PBS in D2O. 1D-^195Pt-NMR was employed within the regions of −2800 and 400 ppm (30 min per region) at 37 °C. Typically, our platinum(II) complexes resonate within the −2800 ppm region (Figures S1–S3), while their platinum(IV) derivatives resonate around the 400 ppm region (Figures S4–S6). A control was required to ensure that the PBS would not interfere in the reduction process of the complexes. From the preliminary 1D-^195Pt-NMR spectra obtained (Figure 11), the state of all complexes was unchanged, and no sign of reduction was observed.
The reduction property of PCLB was monitored for 1 h by ^1H-NMR spectroscopy at 37 °C (Figure 12). Utilizing the resonances of the phenanthroline protons (H2 and H9; H4 and H7; H5 and H6; H3 and H8) from both platinum(II) and (IV) species as a qualitative measure of […], and considering that the resonances of these phenanthroline protons from both platinum(II) and (IV) species were almost equivalent, it is estimated that 40–50% reduction occurs within 10 min. […] A notable observation from the ^1H-NMR experiments is the movement of resonances, particularly the upfield shift of the phenanthroline protons and the downfield shift of the aromatic protons of CLB (Figure 12).
The reduction behavior of PCLB, 5CLB, and 56CLB was monitored using ^1H-NMR and 1D-^195Pt-NMR spectroscopy. A sequence of ^1H-NMR experiments was carried out for 1 h at 37 °C, followed by 1D-^195Pt-NMR within the regions of −2800 and 400 ppm. An amount of 10 mM PBS (~7.4 pH) was transferred to a vial and reduced to dryness through rotary evaporation. AsA (~1 mg) was combined with the metal complex (~5 mg) and transferred to the vial containing the dried PBS. A total of 600 µL of D2O was then added to the vial to dissolve the complex, AsA and the PBS together. Each reaction was followed at 37 °C until the complete reduction in the prodrugs.

MCF-7 breast = experiment: MTT growth inhibition assay, 72 h; format: cell-based, human; settings: for GI50: MTT, 72 h
[4] = tested on: ADDP ovarian (cisplatin-resistant A2780 clone); experiment: MTT growth inhibition assay, 72 h; format: cell-based, human; settings: MTT, 72 h

Structure (SMILES)	GI50 (BE2-C neuroblastoma) [nM]	GI50 (SJ-G2 glioblastoma) [nM]	GI50 (panel of cell lines)	GI50 (HT29 colon)	log kw [1]	GI50 (H460 lung) [nM]	GI50 (U87 glioblastoma) [nM]	GI50 [2] [nM]	GI50 (A431 skin) [nM]	state of the complex at 1 h [3]	time at which the complex started reducing [3] [min]	fold by which the cisplatin prodrug incorporating two CLB ligands (Ma et al.) is less potent (MCF-7 breast; MCF-7 cell line) [fold]	GI50 (MCF-7 breast) [nM]	GI50 [4] [nM]	time to reach 50% reduction [3]	fold more potent than oxaliplatin-CLB prodrug of Qin et al. (MCF-7 breast) [fold]	fold more potent than cisplatin-CLB prodrug of Qin et al. (MCF-7 breast; MCF-7 cell line)
O=C(CCCc1ccc(N(CCCl)CCCl)cc1)[O][Pt-2]12([OH])([NH2+][C@H]3CCCC[C@@H]3[NH2+]1)[n+]1cccc3ccc4ccc[n+]2c4c31.O=[N+]([O-])[O-].O=[N+]([O-])[O-] [PCLB, [Pt^IV(1,10-phenanthroline)(S,S-DACH)(CLB)(OH)](NO3)2]	440 ± 0.03	320 ± 0.04	423 ± 0.07 nM	170 ± 0.046 nM	1.80	460 ± 0.063	1200 ± 0.28	300 ± 0.045	510 ± 0.1	almost reduced to its platinum(II) congener	5	3	680 ± 0.043	290 ± 0.037			
Cc1c(C)c2cccnc2c2ncccc12.N[C@H]1CCCC[C@@H]1N.O=C([O-])CCCc1ccc(N(CCCl)CCCl)cc1.O=[N+]([O-])[O-].O=[N+]([O-])[O-].[OH-].[Pt+4] [56CLB, [Pt^IV(5,6-dimethyl-1,10-phenanthroline)(S,S-DACH)(CLB)(OH)](NO3)2]	140 ± 0.012	130 ± 0.03	40 nM and 44 nM	6 nM and 6.1 nM	1.87 and 1.90	13 ± 0.0056	93 ± 0.0067	7 ± 0.004	34 ± 0.0037			35	63 ± 0.015	10 ± 0.0028	approximately 5 min	~200	about 63 fold
Cc1cc2cccnc2c2ncccc12.N[C@H]1CCCC[C@@H]1N.O=C([O-])CCCc1ccc(N(CCCl)CCCl)cc1.O=[N+]([O-])[O-].O=[N+]([O-])[O-].[OH-].[Pt+4] [5CLB, [Pt^IV(5-methyl-1,10-phenanthroline)(S,S-DACH)(CLB)(OH)](NO3)2]	230 ± 0.039	180 ± 0.02	94 ± 0.01 nM	19 ± 0.0054 nM	1.90 and 1.87	39 ± 0.013	250 ± 0.015	22 ± 0.0045	90 ± 0.015			12	180 ± 0.017	26 ± 0.0064	approximately 5 min		
